This is an account of results in US20210093645A1, “COMBINATION ANTI CANCER THERAPY WITH AN IAP ANTAGONIST AND AN ANTI PD-1 MOLECULE” (Debiopharm International S.A., priority 2017, published 2021).

Assay [1] concerns advanced treatment-refractory NSCLC. The settings on record: advanced treatment-refractory NSCLC patients; cited from earlier work.
A further assay relates to melanoma. The settings on record: melanoma patients; cited from earlier work.
The next assay relates to RCC. The settings on record: RCC patients; cited from earlier work.
The next assay concerns antigen-presenting cells. The settings on record: cited from earlier work.
The subject of assay [2] is syngeneic colon carcinoma cell line MC-38. Description: MC38 syngeneic tumor model, birinapant or LCL161 pretreatment then anti-PD-L1 (Example 3). It is filed as in vivo, C57BL/6J mice. The method, then: 72 adult female C57BL/6J mice (obtained from Shanghai Lingchang Bio-Technology Co.) were inoculated subcutaneously at the right lower flank with 1×10^6 cells of the syngeneic colon carcinoma cell line MC-38 in 0.1 ml of PBS. Tumor volumes were measured three times weekly in two dimensions using a caliper, and the volume was expressed in mm^3 using the formula: V=(L×W×W)/2, where V is tumor volume, L is tumor length (the longest tumor dimension) and W is tumor width (the longest tumor dimension perpendicular to L). All animals were randomly allocated to the 9 different study groups with a mean tumor size of 52 mm^3 based on the “Matched distribution” randomization method (StudyDirector™ software, version 3.1.399.19) and treatments started (denoted as day 1). Dosing as well as tumor and body weight measurement were conducted in a Laminar Flow Cabinet.
On day 1, part of the animals received either a 1 week pretreatment consisting of i.p. SMAC mimetic birinapant at a dose of 30 mg/kg, or its vehicle, in a biweekly schedule as indicated in Table 2. The other part of the animals received either a 1 week pretreatment consisting of p.o. SMAC mimetic LCL161 at a dose of 75 mg/kg, or its vehicle, in a biweekly schedule as indicated in Table 2.
On day 8, vehicle or SMAC mimetic pretreated animals were then further treated until study end with either biweekly i.p. 10 mg/kg of control antibody rlgG2b (Clone: LTF-2, BioXcell), or biweekly i.p. 10 mg/kg of anti-PD-L1 antibody (Mouse surrogate antibody, anti-mouse PD-L1, Clone: 10F.9G2, BioXcell). 1 group of animals that had received 1 week of birinapant pretreatment, and 1 group of animals that had received 1 week of LCL161 pretreatment, were each continued on the respective SMAC mimetic during the period of anti-PD-L1 treatment until study end.

For the next assay, the system named is T-cell. The following applies: in the context of a primary T-cell receptor stimulus; cited from earlier work.
The conditions of assay [3]: in vivo; cited from earlier work.

Entries after “also recorded” stand apart in the source; their conditions may differ. Numbered stars: 1 amine (or outer) side, 2 acyl side, 3 side chain; on linkers, the order of the positions; unused ones are H or OH. Bridge positions count the residues as written; N and C are the ends. Square brackets hold non-standard residues; d marks the D form. Peptide text beside a SMILES is read from it. I, II: the chains in the order shown. Hexamethylenediamine = C(CCCN[*:2])CCN[*:1]; Dip = N[C@H](C(=O)O)C(c1ccccc1)c1ccccc1; Chg = N[C@H](C(=O)O)C1CCCCC1; NMeA = CN[C@@H](C)C(=O)O

As to “Nivolumab: fully human IgG4 anti-PD-1 monoclonal antibody from Bristol-Myers Squibb/Ono Pharmaceuticals”, the Objective response rate was 17% in assay [1], 31% in the assay with melanoma and 20% with RCC. For the same compound, the Overall survival is on record as 9.9 months in assay [1], 16.8 months with melanoma and 22.4 months with RCC.
`CN[C@@H](C)C(=O)N[C@H](C(=O)N1CCC[C@H]1C(=O)N[C@H](C(=O)NCCCCCCNC(=O)[C@@H](NC(=O)[C@@H]1CCCN1C(=O)[C@@H](NC(=O)[C@H](C)NC)C1CCCCC1)C(c1ccccc1)c1ccccc1)C(c1ccccc1)c1ccccc1)C1CCCCC1` [BV6] (I: H-[NMeA][Chg]P[Dip] / II: H-[NMeA][Chg]P[Dip]; linker I:C-II:C via Hexamethylenediamine): the “function of antigen-presenting cells (dendritic cell maturation, type-II to type-I macrophage conversion)” value in the assay with antigen-presenting cells is “modulate the function of antigen-presenting cells”.
Regarding `CC[C@H](NC(=O)[C@H](C)NC)C(=O)N1C[C@@H](O)C[C@H]1Cc1c(-c2[nH]c3cc(F)ccc3c2C[C@@H]2C[C@H](O)CN2C(=O)[C@H](CC)NC(=O)[C@H](C)NC)[nH]c2cc(F)ccc12` [birinapant], the “function of antigen-presenting cells (dendritic cell maturation, type-II to type-I macrophage conversion)” value with antigen-presenting cells is “modulate the function of antigen-presenting cells”. Moreover, the “anti-cancer effect (median tumor volume)” value in assay [2] (birinapant 30 mg/kg i.p. BIW 1 week pretreatment alone, then control antibody rlgG2b (group 2)) is “modest anti-cancer effect”; in assay [2] (birinapant 30 mg/kg i.p. BIW 1 week pretreatment, then anti-PD-L1 10 mg/kg i.p. BIW (group 4)), “singificant anti-cancer effect; also recorded: sensitizes MC38 tumors to a subsequent treatment with an anti-PD-L1 antibody”; in assay [2] (birinapant pretreatment, then anti-PD-L1 plus continued birinapant (group 5), compared with group 4), “small additional benefit”.
For `CN[C@@H](C)C(=O)N[C@H](C(=O)N1CCC[C@H]1c1nc(C(=O)c2ccc(F)cc2)cs1)C1CCCCC1` [LCL161], the “anti-cancer effect (median tumor volume)” value is “modest anti-cancer effect” in assay [2] (LCL161 75 mg/kg p.o. BIW 1 week pretreatment alone, then control antibody rlgG2b (group 7)); “small additional benefit to LCL161 pretreatment alone; also recorded: sensitizes MC38 tumors to a subsequent treatment with an anti-PD-L1 antibody” in assay [2] (LCL161 75 mg/kg p.o. BIW 1 week pretreatment, then anti-PD-L1 10 mg/kg i.p. BIW (group 8)); “significant additional benefit” in assay [2] (LCL161 pretreatment, then anti-PD-L1 plus continued LCL161 (group 9)).
As for `CN[C@@H](C)C(=O)N[C@H](C(=O)N1CC[C@H]2CCN(CCc3ccccc3)C[C@H]21)C1CCCCC1` [LBW242], in the assay with T-cell, the “anti-tumor immune responses (T-cell proliferation, co-stimulation, activation)” value was “increase anti-tumor immune responses”. In addition, in assay [3], the “efficacy in a prophylactic cancer vaccine model” value is given as “enhanced efficacy”.
